≈ marks a conversion by molar mass, not a printed value.
Tests used:
[1] = test system: SK-BR-3 cells; assay: SKBR3 cell-based anti-proliferation / viability assay (CellTiter-Glo); design: species or system human; settings: read-out: SKBR3 EC50
Procedure: The anti-Her2 viability assay protocol is following.
0.1% BSA was added to the Opti-MEM reduced serum media [Gibco, cat #31985-070]. This assay media was used for the dilution of ADC and free drug.
Cells were seeded in their growth media into 96 well plates (Thermo #136101) one day prior to adding ADCs: 1000/well SKBR3 cells in 80 uL media (target positive cells), 1000/well NCI-N87 cells in 80 uL media (target positive cells), 1000/well Calu-3 in 80 uL media (target positive cells), and 800/well NCI-H1975 cells in 80ul media (target negative cells).
Serial dilutions of free drug in 100% DMSO (1:4 10 pts starting from 100 uM) were prepared. Serially diluted payload was transferred into Opti-Mem with 0.1% BSA (10 uL into 990 uL media). Serial dilutions of ADCs/isotype controls at 1:4 in Opti-Mem with 0.1% BSA (starting from 5×1000 nM) were prepared. 20ul assay media diluted ADC/isotype conjugates as well as free drug were transferred to above cells. The plates were incubated at 37° C., 5% CO2 for 6 days. Plates were developed by adding 100ul CellTiter Glo 2.0. RT 5-10 min. Plates were read with Envision plate reader. Data was analyzed using Prism. Only inner 60 well are used for the assay. The edge wells were filled with media to prevent dry out.
The cell line used in the anti-proliferation assays was SK-BR-3, a human breast, adenocarcinoma (pleural effusion) cell line; The cells were grown in McCoy's 5a Medium+10% FBS. To run the assay, the cells (80 μl, 1000 cells) were added to each well in a 96-well plate and incubated for 24 hours at 37° C. with CO2. Next, the cells were treated with test compounds (20 μl) at various concentrations in appropriate cell culture medium (total volume, 0.1 mL). The control wells contain cells and the medium but lack the test compounds. The plates were incubated for 144 hours at 37° C. with CO2. CTG reagent was then added to the wells (100 μl). After the plates were shaken for 10 min and then incubated for 10 min at room temperature, paste the clear bottom with white back seal and record luminescence with Envision. The inhibition % was calculated according to the following equation: inhibition %=[1-(assay-blank)/(control-blank)]×100.

[2] = test system: HCT-15; assay: HCT-15 cell killing EC50 (−v / +v); format: cell-based
[3] = Solubility (Certificate of Analysis of LP1, physical and chemical properties); format: physicochemical; settings: LP1 13g lot, free base
[4] = Special liability / stability (Certificate of Analysis of LP1, physical and chemical properties); format: physicochemical; settings: LP1 13g lot, free base
[5] = Mouse whole blood stability test; format: in vitro ADME
Procedure: In vitro stability of Linker-Prodrug in mouse whole blood Scheme 15. Metabolism of LP1 (M2980) in whole blood.
Stock solution of test compound was provided in 100% DMSO. The stock solution for each compound was diluted into 500 μM with mixture of 50% acetonitrile, then diluted into mouse blood to achieve a final concentration of 1.0 μM. 1.0 μM of test compound in duplicate was incubated in blood at 37° C. Aliquots of 50 uL sample was collected at 0, 15, 30, 60, 120, 240, 480 min, and 24 hours. Reactions were terminated at various time points (0, 15, 30, 60, 120, 240, 480 min, 24 hours) by adding 200 μL of ice-cold acetonitrile containing internal standard with 1% formic acid and then ultrasound for 30 seconds. Plate was centrifuged (4000 rpm, 15 min). 50 μL of supernatants were transferred into a daughter plate containing 200 μL of H2O in each well. The samples were mixed well and analyzed with UPLC-MS/MS.
A Waters liquid chromatographic system was used. Detection was performed on AP14000 Q-Trap and AP15500 mass spectrometer equipped with TurbolonSpray (ESI) Interface (Applied Biosystems, Concord, Ontario, Canada). Analyst 1.5 and 1.6.2 software packages (Applied Biosystems) were used to control the LC-MS/MS system, as well as for data acquisition and processing.
Chromatographic separation was achieved on the Wates BEH C18 column (50*2.1 mm ID, 1.7 μm). The column temperature was maintained at ambient temperature (25° C.). The flow rate was maintained at 0.6 mL/min and the following mobile phases were used: water (0.1% formic acid, v/v) (phase A) and acetonitrile (0.1% formic acid, v/v) (phase B).
Test compounds (1.0 μM) were incubated in blood at 37° C. in duplicate. Aliquots of 50 uL sample was collected at 0, 15, 30, 60, 120, 240, 480 min, and 24 hours. Reactions were terminated at various time points (0, 15, 30, 60, 120, 240, 480 min, 24 hours by adding 200 μL of ice-cold acetonitrile containing internal standard with 1% formic acid, then ultrasound for 30 seconds. The plate was centrifuged (4000 rpm, 15 min). 50 μL of supernatants were transferred into a daughter plate containing 200 μL of water in each well. Samples were mixed well and analyzed with UPLC-MS/MS.
The % was calculated based on initial 1 uM as 100% and the standard concentration curve.

[6] = M3385 metabolism in human liver S9 with NADPH and UDPGA; format: in vitro ADME; settings: 240 min
Excerpt: (§1) Briefly, hepatocytes are complete liver cells, containing various first-phase and second-phase enzymes that can mediate various metabolic reactions; therefore, it is a better in vitro model to test metabolites. Liver S9 is the supernatant obtained by grinding and centrifuging the liver cells. The enzymes content is lower compared to Hepatocytes. It mainly contains CYP enzymes and some biphasic enzymes (but no biphasic coenzyme), so additional coenzyme (NADPH and UDPGA, etc.) is needed to mediate the biphasic reaction.
The metabolism of model compound M3385 was evaluated in human liver S9 with NADPH and UDPGA as follows:
(§2) Assay buffer: 100 mM potassium phosphate buffer (K+/Mg2+ buffer, pH7.4):
(§3) The initial stock of liver S9 was diluted in K+/Mg^2+ buffer, pH 7.4 from 20 mg/ml to 2× Liver S9 (2 mg/mL) with alamethicin (50 μg/mL):
(§4) 2×LS9/compound M3385 solution was prepared.
(§5) Time zero/T0: 199 μL 2 mg/mL liver S9 solution; 100 μL of 8 mM NADPH solution; 100 μL of 20 mM UDPGA solution; and 1200 μL of ACN were added, vortexed at 1000 rpm for 5 min, then 1 μL of 4 mM test compound solution was added.
T240 with a co-factor: 199 μL 2 mg/mL liver S9 solution; 100 μL of 8 mM NADPH solution; and 100 μL of 20 mM UDPGA solution were added. The T240 sample was prewarmed at 37° C. for 5 min and 1 μL of 4 mM test compound solution was added. After 240 min incubation, 1200 μL of ACN was added and then vortexed at 1000 rpm for 5 min.
(§6) Protein precipitation: quenched samples were centrifuged at 14000 rpm for 5 min.
(§7) Sample preparation: an aliquot of 1200 μL of the supernatant was evaporated under N2 stream until dry. Dried extracts were reconstituted with 200 μL of 25% aqueous ACN, vortexed for 2 minutes, centrifuged at 14000 rpm for 5 min, and then 3 μL of reconstituted supernatant were injected for LC-UV-MS analysis.

[7] = M3385 metabolism in human liver S9 without cofactors NADPH and UDPGA; format: in vitro ADME; settings: M3385 incubated in human liver S9 without NADPH and UDPGA, 240 min; single peak (parent or metabolite)
Excerpt: as §1, §2, §3, §4, §5
T240-without a co-factor: 199 μL 2 mg/mL liver S9 solution and 200 μL of buffer were added. The T240-w/o sample was prewarmed at 37° C. for 5 min and 1 μL of 4 mM test compound solution was added. After 240 min incubation, 1200 μL of ACN was added and then vortexed at 1000 rpm for 5 min.
as §6, §7

[8] = molecular target: pGP (Homo sapiens, UniProt P08183); settings: not told
Chain of pGP (P08183 whole entry): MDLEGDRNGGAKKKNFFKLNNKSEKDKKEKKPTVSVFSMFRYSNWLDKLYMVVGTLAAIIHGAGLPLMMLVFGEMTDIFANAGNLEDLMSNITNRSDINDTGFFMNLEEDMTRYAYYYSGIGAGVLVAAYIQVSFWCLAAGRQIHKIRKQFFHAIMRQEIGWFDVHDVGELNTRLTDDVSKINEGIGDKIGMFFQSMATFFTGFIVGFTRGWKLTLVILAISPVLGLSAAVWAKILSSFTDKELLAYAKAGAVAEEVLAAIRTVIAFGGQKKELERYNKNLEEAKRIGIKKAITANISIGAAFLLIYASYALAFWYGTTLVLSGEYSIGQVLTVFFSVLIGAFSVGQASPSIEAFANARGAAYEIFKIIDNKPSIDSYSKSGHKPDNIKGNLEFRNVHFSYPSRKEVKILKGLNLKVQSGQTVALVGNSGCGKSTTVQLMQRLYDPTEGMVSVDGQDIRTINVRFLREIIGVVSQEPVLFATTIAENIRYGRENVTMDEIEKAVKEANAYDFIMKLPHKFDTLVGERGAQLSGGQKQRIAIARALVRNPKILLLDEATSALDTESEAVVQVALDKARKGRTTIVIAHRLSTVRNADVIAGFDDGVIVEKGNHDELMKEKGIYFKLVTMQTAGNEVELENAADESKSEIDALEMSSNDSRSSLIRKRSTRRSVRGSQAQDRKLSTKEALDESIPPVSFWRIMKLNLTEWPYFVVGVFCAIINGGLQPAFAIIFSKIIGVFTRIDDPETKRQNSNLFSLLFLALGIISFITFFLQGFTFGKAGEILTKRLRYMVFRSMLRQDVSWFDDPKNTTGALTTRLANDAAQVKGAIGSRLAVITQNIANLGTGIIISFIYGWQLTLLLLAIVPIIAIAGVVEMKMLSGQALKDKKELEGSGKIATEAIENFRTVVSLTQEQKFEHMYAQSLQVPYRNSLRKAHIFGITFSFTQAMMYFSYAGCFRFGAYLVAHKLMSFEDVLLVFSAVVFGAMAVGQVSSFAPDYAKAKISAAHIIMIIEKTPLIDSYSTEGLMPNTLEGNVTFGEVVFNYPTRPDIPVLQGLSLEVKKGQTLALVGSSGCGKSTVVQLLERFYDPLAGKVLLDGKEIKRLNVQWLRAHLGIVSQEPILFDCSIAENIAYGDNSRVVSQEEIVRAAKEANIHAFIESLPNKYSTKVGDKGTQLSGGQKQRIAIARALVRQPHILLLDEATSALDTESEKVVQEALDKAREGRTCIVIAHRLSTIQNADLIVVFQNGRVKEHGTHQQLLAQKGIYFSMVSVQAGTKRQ

[9] = molecular target: T1, BCRP (Homo sapiens, UniProt Q9UNQ0); settings: not told
T1 sequence (Q9UNQ0 1-655): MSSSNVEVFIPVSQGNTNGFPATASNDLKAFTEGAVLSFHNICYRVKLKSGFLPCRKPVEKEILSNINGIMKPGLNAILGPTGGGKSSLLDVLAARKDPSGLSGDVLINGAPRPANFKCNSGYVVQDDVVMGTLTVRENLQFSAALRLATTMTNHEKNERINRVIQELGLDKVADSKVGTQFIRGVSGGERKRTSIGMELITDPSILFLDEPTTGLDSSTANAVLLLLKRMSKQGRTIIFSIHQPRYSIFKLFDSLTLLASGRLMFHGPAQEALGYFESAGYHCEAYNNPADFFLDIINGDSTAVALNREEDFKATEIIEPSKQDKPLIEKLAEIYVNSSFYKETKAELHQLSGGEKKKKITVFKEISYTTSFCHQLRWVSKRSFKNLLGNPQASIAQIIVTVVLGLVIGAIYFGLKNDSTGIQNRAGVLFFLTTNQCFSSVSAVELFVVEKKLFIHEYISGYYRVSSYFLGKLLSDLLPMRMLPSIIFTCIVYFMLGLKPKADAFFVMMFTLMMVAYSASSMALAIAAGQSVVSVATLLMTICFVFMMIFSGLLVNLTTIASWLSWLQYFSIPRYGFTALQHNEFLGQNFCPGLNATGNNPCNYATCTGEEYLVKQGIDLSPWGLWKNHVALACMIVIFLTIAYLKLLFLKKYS

## CC[C@@]1(O)C(=O)OCc2c1cc1n(c2=O)Cc2c-1nc1cc(F)c(C)c3c1c2[C@@H](N)CC3 [EXT, reference compound]
[1]
  EC50: 0.52 nM
[2]; +v
  EC50: 1.13 nM
[2]; −v
  EC50: 1.22 nM

## CC[C@@]1(O)C(=O)OCc2c1cc1n(c2=O)Cc2c-1nc1cc(F)c(C)c3c1c2[C@@H](NC(=O)COCNC(=O)CNC(=O)OCc1ccc(NC(=O)[C@H](CCCNC(N)=O)NC(=O)[C@@H](NC(=O)CCOCCOCCOCCOCCNC(=O)COC2C#CCCCCC2)C(C)C)cc1)CC3 (stereo partly drawn) [LP1, {4-[(2S)-5-(carbamoylamino)-2-[(2S)-2-{1-[2-(cyclooct-2-yn-1-yloxy)acetamido]-3,6,9,12-tetraoxapentadecan-15-amido}-3-methylbutanamido]pentanamido]phenyl}methyl N-({[({[(10S,23S)-10-ethyl-18-fluoro-10-hydroxy-19-methyl-5,9-dioxo-8-oxa-4,15-diazahexacyclo[14.7.1.0^2,14.0^4,13.0^6,11.0^20,24]tetracosa-1,6(11),12,14,16,18,20(24)-heptaen-23-yl]carbamoyl}methoxy)methyl]carbamoyl}methyl)carbamate]
[3]; in water
  solubility: 0.026 mM (≈ 36.3 µg/mL)
[3]; organic solvent or mixture, in DMSO
  solubility: 10 mM (≈ 14000 µg/mL)
[4]
  Special liability (light): Light sensitive
  Special liability (pH stability): unstable at pH <3 or pH >11
[5]; mouse blood, 37° C., 1.0 μM, 0 hr
  % of test compound in whole blood (initial 1 uM as 100%): 100.0%
[5]; mouse blood, 37° C., 1.0 μM, 0.25 hr
  % of test compound in whole blood (initial 1 uM as 100%): 88.8%
[5]; mouse blood, 37° C., 1.0 μM, 0.5 hr
  % of test compound in whole blood (initial 1 uM as 100%): 82.6%
[5]; mouse blood, 37° C., 1.0 μM, 1 hr
  % of test compound in whole blood (initial 1 uM as 100%): 72.3%
[5]; mouse blood, 37° C., 1.0 μM, 2 hr
  % of test compound in whole blood (initial 1 uM as 100%): 52.8%
[5]; mouse blood, 37° C., 1.0 μM, 4 hr
  % of test compound in whole blood (initial 1 uM as 100%): 30.5%
[5]; mouse blood, 37° C., 1.0 μM, 8 hr
  % of test compound in whole blood (initial 1 uM as 100%): 16.5%
[5]; mouse blood, 37° C., 1.0 μM, 24 hr
  % of test compound in whole blood (initial 1 uM as 100%): 0.0%
[5]; mouse whole blood, 37° C.
  Metabolism in whole blood: metabolized to ProDXD, and then to DXd

## CC[C@@](O)(C(=O)O)c1cc2n(c(=O)c1CO)Cc1c-2nc2cc(F)c(C)c3c2c1[C@@H](NC(=O)CO)CC3 [MP2R]
[6]; M3385 incubated in human liver S9 with NADPH and UDPGA, single peak (parent or metabolite)
  Relative UV Abundance* (%): 0.14%
[7]
  Relative UV Abundance* (%): 0.18%

## CC[C@@]1(O)C(=O)OCc2c1cc1n(c2=O)Cc2c-1nc1cc(F)c(C)c3c1c2[C@@H](NC(=O)COCNC(=O)CN)CC3 [ProDXd]
[6]; human, 10 μM, pH 7.4
  Relative UV Abundance* (%), group total: 3.94%
[8]
  pGP efflux rate: Lower
[5]; mouse, 0 hr, 1 μM
  % of test compound in whole blood (initial 1 uM as 100%): 100.0%
[5]; mouse, 0.25 hr, 1 μM
  % of test compound in whole blood (initial 1 uM as 100%): 63.9%
[5]; mouse, 0.5 hr, 1 μM
  % of test compound in whole blood (initial 1 uM as 100%): 39.0%
[5]; mouse, 1 hr, 1 μM
  % of test compound in whole blood (initial 1 uM as 100%): 30.7%
[5]; mouse, 2 hr, 1 μM
  % of test compound in whole blood (initial 1 uM as 100%): 14.8%
[5]; mouse, 4 hr, 1 μM
  % of test compound in whole blood (initial 1 uM as 100%): 2.7%
[5]; mouse, 8 hr, 1 μM
  % of test compound in whole blood (initial 1 uM as 100%): 0.3%
[5]; mouse, 24 hr, 1 μM
  % of test compound in whole blood (initial 1 uM as 100%): 0.0%
[9]
  BCRP efflux rate: Lower

— US20240269308A1, “PRODRUGS OF TOPOISOMERASE I INHIBITOR FOR ADC CONJUGATIONS AND METHODS OF USE THEREOF” (priority 2022, published 2024)
